What all share (type): in vivo
For one assay, the system named is Zymoseptoria tritici. Briefly: Leaf blotch of wheat (SEPTTR) disease control on wheat seedlings. The conditions noted are these: Low volume application, 121.5 g/ha.
The next assay deals with Puccinia triticina. Briefly: Wheat brown rust (PUCCRT) disease control on wheat seedlings. To be noted: Low volume application, 121.5 g/ha. The method, boiled down: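 Yuma wheat seedlings (first leaf emerged) sprayed to run-off with compound in acetone plus nine volumes water containing 110 ppm Triton X-100, or track-sprayed as EC formulations with 0.1% Trycol 5941. Rust spores inoculated before or after treatment; overnight dark dew, 22 °C, 100% RH, then greenhouse at 24 °C.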

In another assay the test system is Phakopsora pachyrhizi. The experiment in a line: Asian soybean rust (PHAKPA) disease control on soybean seedlings. To be noted: Phakopsora pachyrhizi, High volume application at 25 ppm. An outline of the steps:
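Compounds in acetone diluted with nine volumes of water containing 0.011% Tween 20, sprayed to run-off on two-week-old Williams 82 soybean seedlings; inoculation 3 days before or 1 day after treatment. Plants held 24 h in dark dew room at 22° C, 100% RH, then at 23° C; disease severity scored on sprayed leaves.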

[1] abbreviates: 24 h, 1 Day Protectant, read-out: SEPTTR disease control rating, 1DP.
Setting [2] is: 72 h, 3 Day Curative, read-out: SEPTTR disease control rating, 3DC.
[3] abbreviates: 24 h, 1 Day Protectant, read-out: PUCCRT disease control rating, 1DP.
Where [4] appears, read: 72 h, 3 Day Curative, read-out: PUCCRT disease control rating, 3DC.
Where [5] appears, read: 24 h, 1 day protectant, read-out: PHAKPA 1DP (1 Day Protectant) disease control.
The mark [6] stands for this setting: 72 h, 3 day curative, read-out: PHAKPA 3DC (3 Day Curative) disease control.

Like-named read-outs stand apart in the source and are kept apart here. Where only a bound is given, the exact number is not on record here.

Consider `COc1ccnc(C(=O)N[C@@H](C)C(=O)O[C@@H](C)[C@H](C)c2ccccc2C)c1OCOC(C)=O` [Example 231], for which the pest or weed control at 121.5 g/ha in the assay on Zymoseptoria tritici (setting [1]) was under 80%; with Zymoseptoria tritici (setting [2]) it was under 80%; with Puccinia triticina (setting [3]), over 80%; in the assay on Puccinia triticina (setting [4]) it was under 80%. Moreover, the results for the pest or weed control at 25 ppm in the assay on Phakopsora pachyrhizi (setting [5]) and in the assay on Phakopsora pachyrhizi (setting [6]) were under 80% and under 0%, respectively.
Consider `COc1ccnc(C(=O)N[C@@H](C)C(=O)O[C@H](C)[C@H](C)c2ccc(F)cc2)c1OCOC(C)=O` [Example 232], for which the pest or weed control at 121.5 g/ha is under 0% in the assay with Zymoseptoria tritici (setting [1]), under 80% in the assay with Zymoseptoria tritici (setting [2]), over 80% with Puccinia triticina (setting [3]) and under 80% with Puccinia triticina (setting [4]). Moreover, the values for the pest or weed control at 25 ppm in the assay on Phakopsora pachyrhizi (setting [5]) and in the assay on Phakopsora pachyrhizi (setting [6]) were under 80% and under 0%, respectively.
As to `COc1ccc([C@@H](C)[C@@H](C)OC(=O)[C@H](C)NC(=O)c2nccc(OC)c2OCOC(C)=O)c(C)c1` [Example 233], the pest or weed control at 121.5 g/ha in the assay with Zymoseptoria tritici (setting [1]) was under 80%; with Zymoseptoria tritici (setting [2]) it was under 80%; in the assay on Puccinia triticina (setting [3]) it was over 80%; with Puccinia triticina (setting [4]), under 80%. Further, the figures for the pest or weed control at 25 ppm in the assay on Phakopsora pachyrhizi (setting [5]) and in the assay on Phakopsora pachyrhizi (setting [6]) were over 80% and under 80%, respectively.
For the molecule `COc1ccnc(C(=O)N[C@@H](C)C(=O)O[C@@H](C)[C@@H](C)c2ccccc2C(F)(F)F)c1OC(=O)C(C)C` [Example 234], the pest or weed control at 121.5 g/ha in the assay with Zymoseptoria tritici (setting [1]), with Zymoseptoria tritici (setting [2]), with Puccinia triticina (setting [3]) and with Puccinia triticina (setting [4]) was under 80% each time. Also, the pest or weed control at 25 ppm in the assay on Phakopsora pachyrhizi (setting [5]) and in the assay with Phakopsora pachyrhizi (setting [6]) was over 80% in each case.
For the molecule `COc1ccnc(C(=O)N[C@@H](C)C(=O)O[C@@H](C)[C@@H](C)c2ccc(F)cc2C(F)(F)F)c1OC(=O)C(C)C` [Example 235], the pest or weed control at 121.5 g/ha in the assay on Zymoseptoria tritici (setting [1]) was over 80%; in the assay on Zymoseptoria tritici (setting [2]), over 80%; in the assay with Puccinia triticina (setting [3]), under 80%; in the assay on Puccinia triticina (setting [4]) it was under 80%. The pest or weed control at 25 ppm in the assay with Phakopsora pachyrhizi (setting [5]) and in the assay on Phakopsora pachyrhizi (setting [6]) was over 80% in each case.
As for `COc1ccnc(C(=O)N[C@@H](C)C(=O)O[C@@H](C)[C@@H](C)C2CCCC2)c1OC(=O)C(C)C` [Example 236], the pest or weed control at 121.5 g/ha in the assay on Zymoseptoria tritici (setting [1]) is under 80%; in the assay on Zymoseptoria tritici (setting [2]), under 0%; with Puccinia triticina (setting [3]), under 80%; with Puccinia triticina (setting [4]) it was under 80%. For the same molecule, the pest or weed control at 25 ppm with Phakopsora pachyrhizi (setting [5]) is over 80%; in the assay on Phakopsora pachyrhizi (setting [6]), under 0%.
Consider `COc1ccnc(C(=O)N[C@@H](C)C(=O)O[C@@H](C)[C@@H](C)c2c(C)cccc2C)c1OC(=O)C(C)C` [Example 237], for which the pest or weed control at 121.5 g/ha with Zymoseptoria tritici (setting [1]), in the assay with Zymoseptoria tritici (setting [2]), with Puccinia triticina (setting [3]) and with Puccinia triticina (setting [4]) was under 80% in each case. Besides, the pest or weed control at 25 ppm with Phakopsora pachyrhizi (setting [5]) and in the assay with Phakopsora pachyrhizi (setting [6]) was over 80% throughout.
For `COc1ccnc(C(=O)N[C@@H](C)C(=O)O[C@@H](C)[C@@H](C)c2c(C)cc(F)cc2C)c1OC(=O)C(C)C` [Example 238], the pest or weed control at 121.5 g/ha in the assay with Zymoseptoria tritici (setting [1]) was over 80%; in the assay on Zymoseptoria tritici (setting [2]) it was over 80%; in the assay with Puccinia triticina (setting [3]), over 80%; in the assay with Puccinia triticina (setting [4]), under 80%. Also, the pest or weed control at 25 ppm in the assay on Phakopsora pachyrhizi (setting [5]) and in the assay with Phakopsora pachyrhizi (setting [6]) was over 80% each time.
On to `COc1ccnc(C(=O)N[C@@H](C)C(=O)O[C@H](C)[C@H](C)c2ccccc2C(F)(F)F)c1OC(=O)C(C)C` [Example 239], for which the pest or weed control at 121.5 g/ha in the assay with Zymoseptoria tritici (setting [1]) was under 80%; in the assay with Zymoseptoria tritici (setting [2]), under 80%; with Puccinia triticina (setting [3]) it was under 0%; with Puccinia triticina (setting [4]), under 0%. Besides, the pest or weed control at 25 ppm in the assay on Phakopsora pachyrhizi (setting [5]) and in the assay on Phakopsora pachyrhizi (setting [6]) was under 80% in each case.
Turning to `COc1ccnc(C(=O)N[C@@H](C)C(=O)O[C@H](C)[C@H](C)c2ccc(F)cc2C(F)(F)F)c1OC(=O)C(C)C` [Example 240], the pest or weed control at 121.5 g/ha with Zymoseptoria tritici (setting [1]) was under 80%; in the assay with Zymoseptoria tritici (setting [2]), under 80%; with Puccinia triticina (setting [3]), under 0%; with Puccinia triticina (setting [4]), under 0%. The pest or weed control at 25 ppm with Phakopsora pachyrhizi (setting [5]) and in the assay on Phakopsora pachyrhizi (setting [6]) was under 80% in each case.
Regarding `COc1ccnc(C(=O)N[C@@H](C)C(=O)O[C@H](C)[C@H](C)C2CCCC2)c1OC(=O)C(C)C` [Example 241], the pest or weed control at 121.5 g/ha in the assay on Zymoseptoria tritici (setting [1]) was under 80%; in the assay on Zymoseptoria tritici (setting [2]), under 0%; in the assay with Puccinia triticina (setting [3]), under 0%; in the assay with Puccinia triticina (setting [4]), under 0%. The pest or weed control at 25 ppm with Phakopsora pachyrhizi (setting [5]) and in the assay on Phakopsora pachyrhizi (setting [6]) was under 0% in each case.
As for `COc1ccnc(C(=O)N[C@@H](C)C(=O)O[C@H](C)[C@H](C)c2c(C)cc(F)cc2C)c1OC(=O)C(C)C` [Example 242], the pest or weed control at 121.5 g/ha in the assay on Zymoseptoria tritici (setting [1]) is over 80%; in the assay with Zymoseptoria tritici (setting [2]) it was over 80%; with Puccinia triticina (setting [3]) it was over 80%; with Puccinia triticina (setting [4]), under 80%. In addition, the pest or weed control at 25 ppm in the assay with Phakopsora pachyrhizi (setting [5]) and with Phakopsora pachyrhizi (setting [6]) was over 80% each time.
For the molecule `COc1ccnc(C(=O)N[C@@H](C)C(=O)OC(C)C(C)c2c(C)cccc2C)c1OC(=O)C(C)C` (stereo partly drawn) [Example 243], the pest or weed control at 121.5 g/ha in the assay with Zymoseptoria tritici (setting [1]), in the assay on Zymoseptoria tritici (setting [2]), in the assay with Puccinia triticina (setting [3]) and with Puccinia triticina (setting [4]) was under 80% in each case. Further, the pest or weed control at 25 ppm in the assay on Phakopsora pachyrhizi (setting [5]) and in the assay with Phakopsora pachyrhizi (setting [6]) was over 80% in each case.
As to `COc1ccnc(C(=O)N[C@@H](C)C(=O)OC(C)C(C)c2c(C)cc(F)cc2C)c1OC(=O)C(C)C` (stereo partly drawn) [Example 244], the pest or weed control at 121.5 g/ha was over 80% in the assay with Zymoseptoria tritici (setting [1]), over 80% with Zymoseptoria tritici (setting [2]), over 80% in the assay on Puccinia triticina (setting [3]) and under 80% in the assay on Puccinia triticina (setting [4]). For the same molecule, the pest or weed control at 25 ppm with Phakopsora pachyrhizi (setting [5]) and in the assay on Phakopsora pachyrhizi (setting [6]) was over 80% in each case.
As to `COc1ccnc(C(=O)N[C@@H](C)C(=O)O[C@@H](C)[C@@H](C)c2ccccc2C(F)(F)F)c1OC(C)=O` [Example 245], the pest or weed control at 121.5 g/ha in the assay with Zymoseptoria tritici (setting [1]) is over 80%; in the assay with Zymoseptoria tritici (setting [2]) it was over 80%; in the assay with Puccinia triticina (setting [3]) it was over 80%; with Puccinia triticina (setting [4]) it was under 80%. Besides, the pest or weed control at 25 ppm with Phakopsora pachyrhizi (setting [5]) and in the assay with Phakopsora pachyrhizi (setting [6]) was over 80% in each case.
Take `COc1ccnc(C(=O)N[C@@H](C)C(=O)O[C@@H](C)[C@@H](C)c2ccc(F)cc2C(F)(F)F)c1OC(C)=O` [Example 246]: the pest or weed control at 121.5 g/ha in the assay on Zymoseptoria tritici (setting [1]), in the assay on Zymoseptoria tritici (setting [2]), with Puccinia triticina (setting [3]) and with Puccinia triticina (setting [4]) was over 80% in each case. For the same molecule, the pest or weed control at 25 ppm with Phakopsora pachyrhizi (setting [5]) and with Phakopsora pachyrhizi (setting [6]) was over 80% each time.
As to `COc1ccnc(C(=O)N[C@@H](C)C(=O)O[C@@H](C)[C@@H](C)C2CCCC2)c1OC(C)=O` [Example 247], the pest or weed control at 121.5 g/ha in the assay with Zymoseptoria tritici (setting [1]), in the assay with Zymoseptoria tritici (setting [2]), in the assay on Puccinia triticina (setting [3]) and with Puccinia triticina (setting [4]) was under 80% each time. Further, the figures for the pest or weed control at 25 ppm in the assay on Phakopsora pachyrhizi (setting [5]) and with Phakopsora pachyrhizi (setting [6]) were over 80% and under 80%, respectively.
With `COc1ccnc(C(=O)N[C@@H](C)C(=O)O[C@@H](C)[C@@H](C)c2c(C)cccc2C)c1OC(C)=O` [Example 248], the pest or weed control at 121.5 g/ha in the assay on Zymoseptoria tritici (setting [1]) is under 80%; in the assay with Zymoseptoria tritici (setting [2]), over 80%; in the assay with Puccinia triticina (setting [3]) it was over 80%; with Puccinia triticina (setting [4]), under 80%. Besides, the pest or weed control at 25 ppm in the assay on Phakopsora pachyrhizi (setting [5]) and in the assay with Phakopsora pachyrhizi (setting [6]) was over 80% in each case.
`COc1ccnc(C(=O)N[C@@H](C)C(=O)O[C@@H](C)[C@@H](C)c2c(C)cc(F)cc2C)c1OC(C)=O` [Example 249]: the pest or weed control at 121.5 g/ha with Zymoseptoria tritici (setting [1]), in the assay on Zymoseptoria tritici (setting [2]), in the assay on Puccinia triticina (setting [3]) and in the assay with Puccinia triticina (setting [4]) was over 80% throughout. For the same molecule, the pest or weed control at 25 ppm in the assay with Phakopsora pachyrhizi (setting [5]) and in the assay with Phakopsora pachyrhizi (setting [6]) was over 80% throughout.
For `COc1ccnc(C(=O)N[C@@H](C)C(=O)O[C@H](C)[C@H](C)c2ccccc2C(F)(F)F)c1OC(C)=O` [Example 250], the pest or weed control at 121.5 g/ha is under 80% in the assay on Zymoseptoria tritici (setting [1]), under 80% in the assay with Zymoseptoria tritici (setting [2]), under 0% in the assay on Puccinia triticina (setting [3]) and under 80% in the assay on Puccinia triticina (setting [4]). In addition, the pest or weed control at 25 ppm in the assay on Phakopsora pachyrhizi (setting [5]) and in the assay on Phakopsora pachyrhizi (setting [6]) was under 80% in each case.
For `COc1ccnc(C(=O)N[C@@H](C)C(=O)O[C@H](C)[C@H](C)c2ccc(F)cc2C(F)(F)F)c1OC(C)=O` [Example 251], the pest or weed control at 121.5 g/ha in the assay on Zymoseptoria tritici (setting [1]), with Zymoseptoria tritici (setting [2]), with Puccinia triticina (setting [3]) and in the assay on Puccinia triticina (setting [4]) was under 80% each time. Further, the pest or weed control at 25 ppm with Phakopsora pachyrhizi (setting [5]) is over 80%; with Phakopsora pachyrhizi (setting [6]), under 80%.

Values taken from patent publication US20200399222A1, “PICOLINAMIDES AS FUNGICIDES” (Dow AgroSciences LLC, priority 2018, published 2020).
